# Source: US6737383B1, “Herbicidal oxadiazolidines” (priority 1999, dated 2004)
# How the values were obtained:
# cocklebur = assay: Test B pre/postemergence cocklebur; format: in vivo, Xanthium strumarium
# In short: (§1)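 Test chemicals in a non-phytotoxic solvent mixture with surfactant were sprayed preemergence onto planted seeds and postemergence onto plants 2 to 18 cm tall (1- to 4-leaf stage). After twelve to sixteen days in a greenhouse, injury was visually rated against untreated controls from 0 (no effect) to 10 (complete control).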
# rape = assay: Test B pre/postemergence rape; format: in vivo, Brassica napus
# In short: as §1
# sugar beet = assay: Test B pre/postemergence sugar beet; format: in vivo, Beta vulgaris
# In short: as §1
# bamyardgrass = assay: Test B flood test barnyardgrass; format: in vivo, Echinochloa crus-galli; settings: for Plant response rating, Barnyardgrass (0 to 10 scale, 0 is no effect, 10 is complete control) / Barnyardgrass plant response rating (0 to 10 scale, 0 is no effect, 10 is complete control): visual evaluation after twelve to sixteen days; for Barnyardgrass plant response rating (0 to 10 scale, 0 is no effect, 10 is complete control): under heading Pre-emergence
# In short: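 Each value is a visual injury score relative to controls, with 10 meaning complete control and 0 no effect. Evaluation took place twelve to sixteen days after the 2-leaf-stage plants were treated and kept in the greenhouse.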
# [1] = Postemergence, Rate 62 g/ha, scale 0 to 10, 0 is no effect, 10 is complete control
# [2] = Postemergence, Rate 125 g/ha, scale of 0 to 10 where 0 is no effect and 10 is complete control
# [3] = Postemergence, Rate 250 g/ha, scale of 0 to 10, 0 is no effect, 10 is complete control
# [4] = Preemergence, Rate 62 g/ha, scale of 0 to 10 where 0 is no effect and 10 is complete control
# [5] = Preemergence, Rate 125 g/ha, scale of 0 to 10 where 0 is no effect and 10 is complete control
# [6] = Preemergence, Rate 250 g/ha, scale 0 to 10 (0 no effect, 10 complete control)
# [7] = Preemergence, Rate 500 g/ha, scale of 0 to 10 where 0 is no effect and 10 is complete control
# [8] = Rate 500 g/ha, Postemergence, scale 0 to 10, 0 is no effect, 10 is complete control
# [9] = Rate 62 g/ha, flood test species, Pre-emergence
# [10] = Rate 125 g/ha, flood test species
# [11] = Rate 250 g/ha, Pre-emergence (flood test species), scale 0 to 10, 0 is no effect, 10 is complete control
# [12] = Rate 500 g/ha, Pre-emergence section of Table B, 0 to 10 scale (0 no effect, 10 complete control)
# [13] = Preemergence, Rate 250 g/ha, scale of 0 to 10 where 0 is no effect and 10 is complete control
# [14] = Rate 62 g/ha, Postemergence, scale 0 to 10 (0 no effect, 10 complete control)
# [15] = Rate 125 g/ha, Postemergence, scale of 0 to 10 where 0 is no effect and 10 is complete control
# [16] = Rate 250 g/ha, Postemergence, scale of 0 to 10 where 0 is no effect and 10 is complete control
# [17] = Rate 500 g/ha, Postemergence, scale 0 to 10, 0 no effect, 10 complete control
# [18] = Rate 500 g/ha, Pre-emergence, flood test species, scale 0 to 10 (0 no effect, 10 complete control)
# [19] = Postemergence, Rate 250 g/ha, scale 0 to 10
# [20] = Preemergence, Rate 250 g/ha, scale 0 to 10, 0 is no effect, 10 is complete control
# [21] = Preemergence, Rate 500 g/ha, scale 0 to 10, 0 is no effect, 10 is complete control
# [22] = Rate 125 g/ha, Postemergence, scale 0 to 10, 0 is no effect, 10 is complete control
# [23] = Postemergence, Rate 62 g/ha, scale of 0 to 10, 0 is no effect, 10 is complete control
# [24] = Postemergence, Rate 125 g/ha, scale 0 to 10, 0 is no effect, 10 is complete control
# [25] = Postemergence, Rate 500 g/ha, scale 0 to 10, 0 is no effect, 10 is complete control
# [26] = Preemergence, Rate 125 g/ha, scale 0 to 10, 0 is no effect, 10 is complete control
smiles,measurement,setting,value
CC(C)N(C(=O)n1oc(=O)n(CC2CCCCO2)c1=O)c1ccc(Cl)cc1 (centres unmarked) [Compound 660],"Plant response rating, Cocklebur",cocklebur; [1],0
same,Cocklebur plant response rating,cocklebur; [2],0
same,Cocklebur plant response rating,cocklebur; [3],2
same,Cocklebur plant response rating,cocklebur; [4],0
same,Cocklebur plant response rating,cocklebur; [5],0
same,"Plant response rating, Cocklebur",cocklebur; [6],0
same,"Plant response rating, Cocklebur",cocklebur; [7],0
same,Cocklebur plant response rating,cocklebur; [8],2
same,"Plant response rating, Rape",rape; [1],0
same,Rape plant response rating,rape; [2],0
same,Rape plant response rating,rape; [4],0
same,Rape plant response rating,rape; [5],0
same,"Plant response rating, Rape",rape; [6],3
same,"Plant response rating, Rape",rape; [7],4
same,Rape plant response rating,rape; [8],0
same,"Plant response rating, Sugarbeets",sugar beet; [1],0
same,Sugarbeets plant response rating,sugar beet; [2],0
same,Sugarbeets plant response rating,sugar beet; [4],0
same,Sugarbeets plant response rating,sugar beet; [5],0
same,"Plant response rating, Sugarbeets",sugar beet; [6],0
same,"Plant response rating, Sugarbeets",sugar beet; [7],0
same,Sugarbeets plant response rating,sugar beet; [8],0
same,"Plant response rating, Barnyardgrass (0 to 10 scale, 0 is no effect, 10 is complete control)",bamyardgrass; [9],0
same,"Barnyardgrass plant response rating (0 to 10 scale, 0 is no effect, 10 is complete control)",bamyardgrass; [10],0
same,Barnyardgrass plant response rating,bamyardgrass; [11],0
same,Barnyardgrass plant response rating,bamyardgrass; [12],0
C=CCn1c(=O)on(C(=O)N(c2ccc(Cl)cc2)C(C)C2CC2)c1=O (centres unmarked) [Compound 325],Cocklebur plant response rating,cocklebur; [4],0
same,Cocklebur plant response rating (0 to 10 scale),"cocklebur; Preemergence, Rate 125 g/ha",0
same,Cocklebur plant response rating,cocklebur; [13],0
same,Cocklebur plant response rating,cocklebur; [7],0
same,Cocklebur plant response rating,cocklebur; [14],0
same,Cocklebur plant response rating,cocklebur; [15],0
same,"Plant response rating, Cocklebur",cocklebur; [16],0
same,"Plant response rating, Cocklebur",cocklebur; [17],3
same,Rape plant response rating,rape; [4],0
same,Rape plant response rating (0 to 10 scale),"rape; Preemergence, Rate 125 g/ha",0
same,Rape plant response rating,rape; [13],0
same,Rape plant response rating,rape; [7],0
same,Rape plant response rating,rape; [14],0
same,Rape plant response rating,rape; [15],0
same,"Plant response rating, Rape",rape; [16],0
same,"Plant response rating, Rape",rape; [17],2
same,Sugarbeets plant response rating,sugar beet; [4],0
same,Sugarbeets plant response rating (0 to 10 scale),"sugar beet; Preemergence, Rate 125 g/ha",0
same,Sugarbeets plant response rating,sugar beet; [13],0
same,Sugarbeets plant response rating,sugar beet; [7],0
same,Sugarbeets plant response rating,sugar beet; [14],0
same,Sugarbeets plant response rating,sugar beet; [15],0
same,"Plant response rating, Sugarbeets",sugar beet; [16],0
same,"Plant response rating, Sugarbeets",sugar beet; [17],0
same,Barnyardgrass plant response rating,"bamyardgrass; Rate 62 g/ha, headed Pre-emergence (flood test species), scale 0 to 10 (0 no effect, 10 complete control)",0
same,Barnyardgrass plant response rating,"bamyardgrass; Rate 125 g/ha, Pre-emergence, flood test species, scale 0 to 10 where 0 is no effect and 10 is complete control",0
same,Barnyardgrass plant response rating,"bamyardgrass; Rate 250 g/ha, Pre-emergence, flood-test species, scale 0 to 10, 0 is no effect, 10 is complete control",0
same,Barnyardgrass plant response rating,bamyardgrass; [18],0
CC(C)N(C(=O)n1oc(=O)n(CC(=O)N(C)C)c1=O)c1ccc(Cl)cc1 [Compound 477],Cocklebur plant response rating,cocklebur; [19],0
same,Cocklebur plant response rating,"cocklebur; Postemergence, Rate 500 g/ha, scale of 0 to 10 where 0 is no effect and 10 is complete control",0
same,"Plant response rating, Cocklebur",cocklebur; [4],0
same,"Plant response rating, Cocklebur",cocklebur; [5],0
same,Cocklebur plant response rating,cocklebur; [20],0
same,Cocklebur plant response rating,cocklebur; [21],0
same,Cocklebur plant response rating,cocklebur; [14],0
same,Cocklebur plant response rating,cocklebur; [22],0
same,Rape plant response rating,rape; [19],1
same,"Plant response rating, Rape",rape; [4],0
same,"Plant response rating, Rape",rape; [5],0
same,Rape plant response rating,rape; [20],0
same,Rape plant response rating,rape; [21],2
same,Rape plant response rating,rape; [14],0
same,Rape plant response rating,rape; [22],0
same,Sugarbeets plant response rating,sugar beet; [19],0
same,"Plant response rating, Sugarbeets",sugar beet; [4],0
same,"Plant response rating, Sugarbeets",sugar beet; [5],0
same,Sugarbeets plant response rating,sugar beet; [20],0
same,Sugarbeets plant response rating,sugar beet; [21],0
same,Sugarbeets plant response rating,sugar beet; [14],0
same,Sugarbeets plant response rating,sugar beet; [22],0
same,"Plant response rating, Barnyardgrass (0 to 10 scale, 0 is no effect, 10 is complete control)",bamyardgrass; [9],0
same,"Barnyardgrass plant response rating (0 to 10 scale, 0 is no effect, 10 is complete control)",bamyardgrass; [10],0
same,Barnyardgrass plant response rating,bamyardgrass; [11],0
same,Barnyardgrass plant response rating,bamyardgrass; [18],0
CC(C)N(C(=O)n1oc(=O)n(CC2CCC2)c1=O)c1ccc(F)cc1F [Compound 521],Cocklebur plant response rating,cocklebur; [23],0
same,Cocklebur plant response rating,cocklebur; [24],0
same,"Plant response rating, Cocklebur",cocklebur; [25],0
same,"Plant response rating, Cocklebur",cocklebur; [4],0
same,Cocklebur plant response rating,cocklebur; [26],0
same,Cocklebur plant response rating (0 to 10 scale),"cocklebur; Preemergence, Rate 250 g/ha",0
same,Cocklebur plant response rating,cocklebur; [7],0
same,"Plant response rating, Cocklebur",cocklebur; [16],0
same,Rape plant response rating,rape; [23],0
same,Rape plant response rating,rape; [24],0
same,"Plant response rating, Rape",rape; [25],3
same,"Plant response rating, Rape",rape; [4],0
same,Rape plant response rating,rape; [26],0
same,Rape plant response rating (0 to 10 scale),"rape; Preemergence, Rate 250 g/ha",2
same,Rape plant response rating,rape; [7],2
same,"Plant response rating, Rape",rape; [16],2
same,Sugarbeets plant response rating,sugar beet; [23],0
same,Sugarbeets plant response rating,sugar beet; [24],0
same,"Plant response rating, Sugarbeets",sugar beet; [25],4
same,"Plant response rating, Sugarbeets",sugar beet; [4],0
same,Sugarbeets plant response rating,sugar beet; [26],0
same,Sugarbeets plant response rating (0 to 10 scale),"sugar beet; Preemergence, Rate 250 g/ha",3
same,Sugarbeets plant response rating,sugar beet; [7],3
same,"Plant response rating, Sugarbeets",sugar beet; [16],0
same,"Plant response rating, Barnyardgrass (0 to 10 scale, 0 is no effect, 10 is complete control)",bamyardgrass; [9],0
same,"Barnyardgrass plant response rating (0 to 10 scale, 0 is no effect, 10 is complete control)",bamyardgrass; [10],0
same,Barnyardgrass plant response rating,bamyardgrass; [11],0
same,Barnyardgrass plant response rating,bamyardgrass; [12],0
CC(C)N(C(=O)n1oc(=O)n(CC2CCCCO2)c1=O)c1ccccc1 (centres unmarked) [Compound 659],"Plant response rating, Cocklebur",cocklebur; [1],0
same,Cocklebur plant response rating,cocklebur; [2],0
same,Cocklebur plant response rating,cocklebur; [3],0
same,Cocklebur plant response rating,cocklebur; [4],0
same,Cocklebur plant response rating,cocklebur; [5],0
same,"Plant response rating, Cocklebur",cocklebur; [6],0
same,"Plant response rating, Cocklebur",cocklebur; [7],0
same,Cocklebur plant response rating,cocklebur; [8],2
same,"Plant response rating, Rape",rape; [1],0
same,Rape plant response rating,rape; [2],0
same,Rape plant response rating,rape; [4],0
same,Rape plant response rating,rape; [5],0
same,"Plant response rating, Rape",rape; [6],2
same,"Plant response rating, Rape",rape; [7],10
same,Rape plant response rating,rape; [8],1
same,"Plant response rating, Sugarbeets",sugar beet; [1],0
same,Sugarbeets plant response rating,sugar beet; [2],0
same,Sugarbeets plant response rating,sugar beet; [4],0
same,Sugarbeets plant response rating,sugar beet; [5],0
same,"Plant response rating, Sugarbeets",sugar beet; [6],0
same,"Plant response rating, Sugarbeets",sugar beet; [7],5
same,Sugarbeets plant response rating,sugar beet; [8],4
same,"Plant response rating, Barnyardgrass (0 to 10 scale, 0 is no effect, 10 is complete control)",bamyardgrass; [9],0
same,"Barnyardgrass plant response rating (0 to 10 scale, 0 is no effect, 10 is complete control)",bamyardgrass; [10],2
same,Barnyardgrass plant response rating,bamyardgrass; [11],2
same,Barnyardgrass plant response rating,bamyardgrass; [12],7
